Laboratory results reported in US20170204197A1, “Goodpasture Antigen Binding Protein Detection and Inhibition and its Use in Diabetes” (FibroStatin, S.L., priority 2013, published 2017).

Legend:
[1] = tested on: AS160 protein phosphorylated at Ser 318 (P Ser 318 AS160); assay: Western blot for AS160 phosphorylated at Ser 318 in A549 lysates (FIG. 2C); format: cell-based; settings: A549 cells, DMEM:F-12 (315 mg glucose/dL), T12 50 μM, 20 h
Procedure: (§1) FIG. 2. […] A, A549 cells were cultured in DMEM plus 10% fetal bovine serum and penicillin/streptomycin with the indicated concentrations of glucose during 24 h. Then cells were lysed in 25 mM Tris-HCl pH 7.5, 150 mM NaCl, 1% Triton X-100, 0.1% SDS, 1 mM PMSF, 10 μg/mL leupeptin, 20 mM NaF at 4° C. during 30 min. Lysates were cleared by centrifugation at 16,000×g for 5 min (4° C.) and the protein concentration of supernatants was determined (Bio-Rad). […] Development was performed with Amersham ECL Prime Western Blotting Detection Reagent (GE Healthcare Lifesciences) and image acquisition with an ImageQuant LAS 4000 Mini device (GE Healthcare Lifesciences). […] After incubations cells were lysed as in A and protein concentrations in supernatants were similarly assessed. Glucose concentrations in the media were determined at the beginning and at the end of the incubation period with a Glucocard G+ meter (Arkray Factory, Inc.), and glucose uptake by cells was calculated using the protein concentrations of the corresponding lysates for normalization purposes.
(§2) A, A549 cells were cultured in DMEM plus 10% fetal bovine serum and penicillin/streptomycin with the indicated concentrations of glucose during 24 h. […] Lysates were cleared by centrifugation at 16,000×g for 5 min (4° C.) and the protein concentration of supernatants was determined (Bio-Rad). […]

[2] = tested on: C2Cl2 mouse myoblasts differentiated to myotubes; assay: Glucose concentration in media of C2Cl2 myotubes at physiological glucose (FIG. 3); format: cell-based; settings: initial glucose 115 mg/dL, T12 50 μM, indicated times
Procedure: C2Cl2 mouse myoblasts were differentiated to myotubes in DMEM supplemented with 2% horse serum and penicillin/streptomycin during 10 days, and then incubated in DMEM plus 0.25% horse serum with an initial glucose concentration of 115 mg/dL, in absence or presence of T12 (50 μM) during the indicated times. Glucose concentrations in media were determined with a Glucocard™ G+ meter (Arkray Factory, Inc.). Shown are means±SEM (n=2). […] C2Cl2 mouse myoblasts were differentiated to myotubes in DMEM supplemented with 2% horse serum and penicillin/streptomycin during 10 days, and then incubated in DMEM plus 0.25% horse serum with an initial glucose concentration of 115 mg/dL, in absence or presence of T12 (50 μM) during the indicated times. Glucose concentrations in media were determined with a Glucocard™ G+ meter (Arkray Factory, Inc.). Shown are means±SEM (n=2).

A549 cells = assay: Glucose uptake by A549 cells under increased extracellular glucose (FIG. 2B); format: cell-based; settings: DMEM:F-12 (315 mg glucose/dL), increasing concentrations of T12, 14 h
Procedure: as §1, §2

GPBP = target: T1, GPBP (Homo sapiens, UniProt Q9Y5P4); settings: from WO 2004/070025, WO 2011/054530, U.S. Pat. No. 8,586,776, WO2014/006020; cited from earlier work
T1 sequence (Q9Y5P4 1-624): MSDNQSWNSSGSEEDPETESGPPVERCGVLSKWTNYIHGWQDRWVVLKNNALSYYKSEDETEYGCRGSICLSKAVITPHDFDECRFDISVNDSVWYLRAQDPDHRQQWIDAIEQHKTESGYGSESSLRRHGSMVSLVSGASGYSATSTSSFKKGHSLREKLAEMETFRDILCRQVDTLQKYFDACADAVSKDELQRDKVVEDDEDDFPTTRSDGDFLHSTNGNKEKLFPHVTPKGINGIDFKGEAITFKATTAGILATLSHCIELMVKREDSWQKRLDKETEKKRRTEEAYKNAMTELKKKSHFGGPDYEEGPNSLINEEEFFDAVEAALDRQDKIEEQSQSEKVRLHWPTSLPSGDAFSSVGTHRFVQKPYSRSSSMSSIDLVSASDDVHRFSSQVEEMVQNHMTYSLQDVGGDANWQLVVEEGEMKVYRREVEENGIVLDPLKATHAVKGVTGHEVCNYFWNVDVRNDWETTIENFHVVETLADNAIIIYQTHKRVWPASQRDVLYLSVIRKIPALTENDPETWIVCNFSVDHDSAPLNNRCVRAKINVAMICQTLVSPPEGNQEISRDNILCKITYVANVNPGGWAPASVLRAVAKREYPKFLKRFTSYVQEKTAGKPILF

Row | Compound | phosphorylation of AS160 (Ser 318) [1] | extracellular glucose levels [2] | glucose uptake (A549 cells) | inhibition of GPBP kinase activity (GPBP)
1 | COc1ccc(-c2ccc(-c3cccc(C)c3)c(C)c2)c(CCC(=O)O)c1 [T12, 3-[4″-methoxy-3,2′-dimethyl-(1,1′;4′,1″)terphenyl-2″-yl]propionic acid] | induced phosphorylation of AS160 | reduced the extracellular glucose levels in a concentration-dependent manner | progressively enhanced glucose uptake | 
2 | COc1cccc2c1C(=O)c1c(O)c3c(c(O)c1C2=O)C[C@@](O)(C(=O)CO)C[C@@H]3O[C@H]1C[C@H](N)[C@H](O)[C@H](C)O1 [doxorubicin] |  |  |  | inhibit GPBP kinase activity
3 | Q2: isolated peptide representing 260SHCIE264 and flanking regions (LATLSHCIELMVKR) (SEQ ID NO: 8) |  |  |  | efficiently inhibited GPBP kinase activity
